Measured values reported in the supplement of paper PMC10627819.

How the values were obtained:
[1] = tested on: S. aureus Newman; assay: fitness (endpoint OD595 vs no drug) (fraction); higher = more growth
Procedure, shortened: (§1)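 At 37 °C, bacteria in TSB, LB Lennox or CY were grown in 384-well plates from a starting OD595 of 0.01. OD595 was measured every 30 min for 14 h, with the first reading used as background. Fitness is the optical density at the switch to stationary phase as a fraction of the robust mean of no-drug control wells, capped at 1.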

[2] = tested on: S. aureus DSM 20231; assay: as above
Procedure, shortened: as §1

[3] = tested on: B. subtilis 168; assay: as above
Procedure, shortened: as §1

[4] = tested on: S. pneumoniae D39V; assay: Bliss interaction score (quartile over a dose matrix) (fitness difference); higher = more antagonism (negative = synergy)
Procedure, shortened: (§2)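 Quartiles summarise the Bliss score over technical, biological and donor/recipient replicates, where the score is observed minus expected fitness under a product model. Expected fitness uses single-drug values inferred from combination data. Fitness is OD595 at entry into stationary phase over the plate's robust no-drug mean, capped at 1.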

[5] = tested on: S. aureus Newman; assay: as above
Procedure, shortened: as §2

[6] = tested on: S. aureus DSM 20231; assay: as above
Procedure, shortened: as §2

[7] = tested on: B. subtilis 168; assay: as above
Procedure, shortened: as §2
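Wherever Bliss interaction score (quartile over a dose matrix) is given: first quartile when negative (synergy) and third quartile when positive (antagonism).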

CC[C@H]1OC(=O)[C@H](C)[C@@H](O[C@H]2C[C@@](C)(OC)[C@@H](O)[C@H](C)O2)[C@H](C)[C@@H](O[C@@H]2O[C@H](C)C[C@H](N(C)C)[C@H]2O)[C@](C)(O)C[C@@H](C)CN(C)[C@H](C)[C@@H](O)[C@]1(C)O [Azithromycin] + CCN(CC)CCOC(=O)c1ccc(N)cc1 [Procaine]
fitness
Settings | partner 85.5 µg/mL | partner 171 µg/mL | partner 342 µg/mL
[1], first compound 0.125 µg/mL | 0.871 | 0.864 | 0.843
[1], first compound 0.25 µg/mL | 0.803 | 0.877 | 0.779
[1], first compound 0.5 µg/mL | 0.408 | – | 0.401
[2], first compound 0.125 µg/mL | – | 0.905 | 0.912
[2], first compound 0.5 µg/mL | 0.441 | – | 0.426
[3], first compound 0.25 µg/mL | 0.867 | 0.9 | 0.861
[3], first compound 0.5 µg/mL | 0.777 | 0.778 | 0.787

Settings | Bliss interaction score
[4] | 0.0533
[5] | -0.0635
[6] | -0.0967
[7] | -0.0562

CC[C@H]1OC(=O)[C@H](C)[C@@H](O[C@H]2C[C@@](C)(OC)[C@@H](O)[C@H](C)O2)[C@H](C)[C@@H](O[C@@H]2O[C@H](C)C[C@H](N(C)C)[C@H]2O)[C@](C)(O)C[C@@H](C)CN(C)[C@H](C)[C@@H](O)[C@]1(C)O [Azithromycin] + CN1C2=CC=CC=C2N=C3C1=CC=CC3=O [Pyocyanin]
fitness
Settings | partner 1.25 µg/mL | partner 2.5 µg/mL | partner 5 µg/mL
[1], first compound 0.125 µg/mL | 0.865 | 0.788 | –
[1], first compound 0.25 µg/mL | 0.856 | 0.759 | –
[1], first compound 0.5 µg/mL | – | – | 0.21
[2], first compound 0.125 µg/mL | 0.851 | 0.789 | 0.694
[2], first compound 0.25 µg/mL | 0.797 | 0.8 | 0.666
[3], first compound 0.25 µg/mL | 0.838 | 0.792 | 0.648
[3], first compound 0.5 µg/mL | – | 0.631 | –

Settings | Bliss interaction score
[4] | -0.0827
[5] | 0.0847
[6] | -0.0596
[7] | -0.0732

CC[C@H]1OC(=O)[C@H](C)[C@@H](O[C@H]2C[C@@](C)(OC)[C@@H](O)[C@H](C)O2)[C@H](C)[C@@H](O[C@@H]2O[C@H](C)C[C@H](N(C)C)[C@H]2O)[C@](C)(O)C[C@@H](C)CN(C)[C@H](C)[C@@H](O)[C@]1(C)O [Azithromycin] + CN(N=O)C(=O)N[C@@H](C=O)[C@@H](O)[C@H](O)[C@H](O)CO [Streptozotocin]
fitness
Settings | partner 0.15 µg/mL | partner 0.3 µg/mL | partner 0.6 µg/mL
[1], first compound 0.125 µg/mL | 0.81 | 0.707 | 0.564
[1], first compound 0.25 µg/mL | 0.811 | 0.76 | 0.657
[1], first compound 0.5 µg/mL | 0.576 | 0.5 | 0.367
[2], first compound 0.125 µg/mL | 0.796 | 0.742 | 0.703
[2], first compound 0.25 µg/mL | 0.72 | 0.73 | 0.736
[2], first compound 0.5 µg/mL | 0.37 | 0.293 | –
[3], first compound 0.25 µg/mL | 0.938 | 0.952 | 0.918
[3], first compound 0.5 µg/mL | 0.897 | 0.902 | 0.842

Settings | Bliss interaction score
[4] | 0.0501
[5] | 0.0643
[6] | -0.0752
[7] | 0.0551

CC[C@H]1OC(=O)[C@H](C)[C@@H](O[C@H]2C[C@@](C)(OC)[C@@H](O)[C@H](C)O2)[C@H](C)[C@@H](O[C@@H]2O[C@H](C)C[C@H](N(C)C)[C@H]2O)[C@](C)(O)C[C@@H](C)CN(C)[C@H](C)[C@@H](O)[C@]1(C)O [Azithromycin] + CN[C@@H]1[C@H](O)[C@H](NC)[C@H]2O[C@@]3(O)C(=O)C[C@@H](C)O[C@H]3O[C@@H]2[C@H]1O [Spectinomycin]
fitness
Settings | partner 2 µg/mL | partner 4 µg/mL | partner 8 µg/mL | partner 16 µg/mL
[1], first compound 0.125 µg/mL | – | 0.84 | 0.849 | 0.821
[1], first compound 0.25 µg/mL | – | 0.818 | 0.812 | 0.689
[2], first compound 0.125 µg/mL | – | 0.856 | 0.774 | 0.755
[2], first compound 0.25 µg/mL | – | 0.788 | 0.771 | 0.644
[3], first compound 0.25 µg/mL | 0.918 | 0.895 | 0.815 | –
[3], first compound 0.5 µg/mL | 0.849 | 0.816 | – | –

fitness, one replicate
Settings | first compound 0.125 µg/mL | first compound 0.25 µg/mL | first compound 0.5 µg/mL
[1], partner 32 µg/mL | 0.401 | 0.165 | 0.0078
[1], partner 64 µg/mL | 0.0378 | 0.0151 | 0.003
[2], partner 32 µg/mL | 0.658 | 0.348 | 0.0388
[2], partner 64 µg/mL | 0.0503 | 0.0326 | 0.0093

Settings | Bliss interaction score
[4] | -0.0642
[5] | -0.124
[6] | -0.107
[7] | -0.0884

CC[C@H]1OC(=O)[C@H](C)[C@@H](O[C@H]2C[C@@](C)(OC)[C@@H](O)[C@H](C)O2)[C@H](C)[C@@H](O[C@@H]2O[C@H](C)C[C@H](N(C)C)[C@H]2O)[C@](C)(O)C[C@@H](C)CN(C)[C@H](C)[C@@H](O)[C@]1(C)O [Azithromycin] + CO/N=C(\C(=O)N[C@@H]1C(=O)N2C(C(=O)O)=C(COC(C)=O)CS[C@H]12)c1csc(N)n1 [Cefotaxime]
fitness, one replicate
Settings | first compound 0.125 µg/mL | first compound 0.25 µg/mL | first compound 0.5 µg/mL | first compound 1 µg/mL | first compound 2 µg/mL
[1], partner 0.039 µg/mL | 0.792 | 0.896 | 0.786 | – | –
[1], partner 0.312 µg/mL | 0.269 | 0.241 | 0.0227 | – | –
[2], partner 0.039 µg/mL | 0.725 | 0.724 | 0.589 | – | –
[3], partner 0.00775 µg/mL | – | – | 0.831 | 0.567 | 0.0141
[3], partner 0.0155 µg/mL | – | – | 0.714 | 0.324 | 0.0276
[3], partner 0.031 µg/mL | – | – | 0.516 | 0.153 | 0.0097

fitness
Settings | first compound 0.125 µg/mL | first compound 0.25 µg/mL | first compound 0.5 µg/mL | first compound 1 µg/mL
[1], partner 0.078 µg/mL | 0.722 | 0.754 | 0.549 | –
[1], partner 0.156 µg/mL | 0.587 | 0.588 | – | –
[1], partner 0.625 µg/mL | – | – | 0.0779 | –
[1], partner 1.25 µg/mL | 0.157 | 0.0373 | 0.0342 | –
[1], partner 2.5 µg/mL | 0.0341 | 0.0356 | 0.0427 | –
[2], partner 0.078 µg/mL | 0.744 | 0.768 | 0.554 | –
[2], partner 0.156 µg/mL | 0.672 | 0.762 | 0.511 | –
[2], partner 0.312 µg/mL | 0.6 | 0.668 | 0.487 | –
[3], partner 0.0625 µg/mL | – | 0.654 | 0.631 | –
[3], partner 0.125 µg/mL | – | 0.456 | 0.456 | 0.21
[3], partner 0.25 µg/mL | – | 0.349 | 0.358 | 0.177
[3], partner 0.5 µg/mL | – | 0.21 | 0.19 | 0.0636
[3], partner 1 µg/mL | – | 0.141 | 0.103 | 0.0233
[3], partner 2 µg/mL | – | 0.111 | 0.0792 | 0.037

Settings | Bliss interaction score
[4] | 0.0552
[5] | -0.0321
[6] | 0.0492
[7] | -0.053
